Here are results for nine compounds from PMC9014651 (Bioorganic Chemistry, 2022).

Experiment [1] has as its target T1, SARS-CoV-2 M^pro (Severe acute respiratory syndrome coronavirus 2, UniProt P0DTD1). In words: IC50 measurement on M^pro. The format is biochemical.
The next experiment deals with M^pro. The settings on record: cited from earlier work.
The target in experiment [2] is T1, SARS-CoV-2 M^pro. The experiment is described as follows: FRET percent inhibition screening of M^pro inhibitors. The settings on record: control experiments. The format is biochemical.

The term IC50 denotes the concentration that gives 50% inhibition. Higher therefore signals weaker potency.

Where a SMILES comes first, the peptide text is derived from it.

With `Cc1ccccc1NC(=S)N/N=C/c1ccccc1O` [2n, (E)-1-(2-hydroxybenzylidene)-4-o-tolylthiosemicarbazide], the IC50 at SARS-CoV-2 M^pro [1] came out at 20.7 µM.

Regarding `O=c1c2ccccc2[se]n1-c1ccccc1` [Ebselen], in the experiment with M^pro, the “Effect of binding on M^pro stability (thermal shift)” value is “destabilization” and the “Reversibility of M^pro inhibition” value is on record as “irreversibly inhibit”.

On to `O=c1c2ccccc2sn1-c1ccccc1` [Ebsulfur], for which the “Reversibility of M^pro inhibition” value with M^pro is listed as “irreversibly inhibit”.

Take `CC(C)C[C@H](NC(=O)OCc1ccccc1)C(=O)N[C@@H](CC1CCNC1=O)C(O)S(=O)(=O)[O-].[Na+]` (stereo partly shown) [GC-376]: in the experiment with M^pro, the “IC50 value range (M^pro)” value is listed as “single-digit to sub-micromolar”.

Take `O=C(CC(c1ccccc1)c1ccccc1)NO` [N-hydroxy-3,3-diphenylpropanamide]: the “Inhibitory effect on M^pro (control experiment)” value at SARS-CoV-2 M^pro [2] was “no inhibitory effect”.

With `CCCC(NC(=O)C(CC(C)C)NC(=O)OCc1ccccc1)C(=O)C(=O)NCc1ccccn1` (stereo not shown) [XII], the “IC50 value range (M^pro)” value in the experiment with M^pro is given as “single-digit to sub-micromolar”.

For `CC(C)(C)NC(=O)N[C@H](C(=O)N1C[C@H]2[C@@H]([C@H]1C(=O)NC(CC1CCC1)C(=O)C(N)=O)C2(C)C)C(C)(C)C` (stereo partly shown) [boceprevir], the “IC50 value range (M^pro)” value in the experiment on M^pro is recorded as “single-digit to sub-micromolar”.

On to `CSCC[C@@H](C=O)NC(=O)[C@H](CC(C)C)NC(=O)[C@H](CC(C)C)NC(C)=O` [calpain inhibitors II] (Ac-Leu-Leu-Met-aldehyde), for which the “IC50 value range (M^pro)” value with M^pro is given as “single-digit to sub-micromolar”.

`CCN(CC)C(=S)SSC(=S)N(CC)CC` [disulfiram]: the “Effect of binding on M^pro stability (thermal shift)” value with M^pro is reported as “destabilization”.
